The results in this text go back to article PMC4858680, “A platinum-based hybrid drug design approach to circumvent acquired resistance to molecular targeted tyrosine kinase inhibitors” (Scientific Reports, 2016).

Where two headings read alike, the source gives them in different places.

What all share (assay type): binding
One assay has as its target T1, MERTK (Homo sapiens, UniProt Q12866).
T1 construct: purchased DiscoveRx KINOMEscan
T1 sequence (Q12866 21-999): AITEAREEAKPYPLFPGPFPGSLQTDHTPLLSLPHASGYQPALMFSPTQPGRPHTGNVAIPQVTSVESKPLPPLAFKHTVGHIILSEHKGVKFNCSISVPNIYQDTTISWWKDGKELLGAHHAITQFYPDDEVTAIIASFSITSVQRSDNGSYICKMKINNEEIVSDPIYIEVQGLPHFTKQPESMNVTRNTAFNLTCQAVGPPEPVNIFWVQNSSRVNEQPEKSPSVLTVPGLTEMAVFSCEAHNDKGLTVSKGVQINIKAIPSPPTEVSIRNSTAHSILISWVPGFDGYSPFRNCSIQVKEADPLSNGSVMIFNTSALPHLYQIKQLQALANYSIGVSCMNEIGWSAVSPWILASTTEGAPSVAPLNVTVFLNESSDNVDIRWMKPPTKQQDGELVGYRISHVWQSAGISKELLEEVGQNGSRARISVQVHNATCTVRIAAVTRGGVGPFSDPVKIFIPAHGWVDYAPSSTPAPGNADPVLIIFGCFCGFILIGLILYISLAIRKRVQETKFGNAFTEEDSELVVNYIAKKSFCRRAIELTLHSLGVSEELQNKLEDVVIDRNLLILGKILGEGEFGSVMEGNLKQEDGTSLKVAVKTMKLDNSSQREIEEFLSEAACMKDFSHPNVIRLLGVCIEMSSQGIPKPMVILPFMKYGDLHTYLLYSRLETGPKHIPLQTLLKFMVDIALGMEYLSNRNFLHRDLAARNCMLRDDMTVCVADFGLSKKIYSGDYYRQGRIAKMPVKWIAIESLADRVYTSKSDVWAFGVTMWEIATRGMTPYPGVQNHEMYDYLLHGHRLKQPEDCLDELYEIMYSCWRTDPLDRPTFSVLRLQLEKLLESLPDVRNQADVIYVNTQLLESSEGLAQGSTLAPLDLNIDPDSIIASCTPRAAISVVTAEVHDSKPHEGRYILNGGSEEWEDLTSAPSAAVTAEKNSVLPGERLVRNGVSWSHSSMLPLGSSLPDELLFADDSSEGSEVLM
The note with it: for remaining binding at 10 µM: read-out: Percent control.

The target of another assay is T2, SRMS (Homo sapiens, UniProt Q9H3Y6).
T2 construct: purchased DiscoveRx (KINOMEscan service)
The note with it: for remaining binding at 10 µM: read-out: Percent control.

Assay [1] deals with T3, JAK3(JH1domain-catalytic) (Homo sapiens, UniProt P52333).
T3 construct: JAK3(JH1domain-catalytic); purchased DiscoveRx KINOMEscan
The note with it: for remaining binding at 10 µM: read-out: Percent control.

The next assay has as its target T4, FAK (Homo sapiens, UniProt Q05397).
T4 construct: purchased DiscoveRx KINOMEscan
The note with it: for remaining binding at 10 µM: read-out: Percent control.

In the next assay the target is T5, TXK (Homo sapiens, UniProt P42681).
T5 construct: purchased DiscoveRx (KINOMEscan service)
T5 sequence (P42681 1-527): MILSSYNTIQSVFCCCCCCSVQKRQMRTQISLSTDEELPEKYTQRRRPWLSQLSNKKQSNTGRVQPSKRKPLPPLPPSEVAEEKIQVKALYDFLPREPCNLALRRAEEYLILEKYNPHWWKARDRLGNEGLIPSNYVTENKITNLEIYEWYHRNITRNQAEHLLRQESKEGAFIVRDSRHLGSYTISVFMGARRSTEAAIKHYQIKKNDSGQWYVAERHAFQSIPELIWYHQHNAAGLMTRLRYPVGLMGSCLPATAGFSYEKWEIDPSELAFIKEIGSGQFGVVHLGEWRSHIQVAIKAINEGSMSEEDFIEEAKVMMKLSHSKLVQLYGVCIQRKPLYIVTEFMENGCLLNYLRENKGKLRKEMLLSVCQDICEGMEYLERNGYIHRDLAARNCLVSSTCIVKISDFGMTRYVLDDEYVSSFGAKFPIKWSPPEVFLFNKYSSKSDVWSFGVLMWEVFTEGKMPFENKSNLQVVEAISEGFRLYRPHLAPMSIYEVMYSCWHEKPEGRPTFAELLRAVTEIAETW
The note with it: for remaining binding at 10 µM: read-out: Percent control; for Percent control: 10 μM.

A further assay concerns the target T6, BMX (Homo sapiens, UniProt P51813).
T6 construct: purchased DiscoveRx KINOMEscan
T6 sequence (P51813 1-675): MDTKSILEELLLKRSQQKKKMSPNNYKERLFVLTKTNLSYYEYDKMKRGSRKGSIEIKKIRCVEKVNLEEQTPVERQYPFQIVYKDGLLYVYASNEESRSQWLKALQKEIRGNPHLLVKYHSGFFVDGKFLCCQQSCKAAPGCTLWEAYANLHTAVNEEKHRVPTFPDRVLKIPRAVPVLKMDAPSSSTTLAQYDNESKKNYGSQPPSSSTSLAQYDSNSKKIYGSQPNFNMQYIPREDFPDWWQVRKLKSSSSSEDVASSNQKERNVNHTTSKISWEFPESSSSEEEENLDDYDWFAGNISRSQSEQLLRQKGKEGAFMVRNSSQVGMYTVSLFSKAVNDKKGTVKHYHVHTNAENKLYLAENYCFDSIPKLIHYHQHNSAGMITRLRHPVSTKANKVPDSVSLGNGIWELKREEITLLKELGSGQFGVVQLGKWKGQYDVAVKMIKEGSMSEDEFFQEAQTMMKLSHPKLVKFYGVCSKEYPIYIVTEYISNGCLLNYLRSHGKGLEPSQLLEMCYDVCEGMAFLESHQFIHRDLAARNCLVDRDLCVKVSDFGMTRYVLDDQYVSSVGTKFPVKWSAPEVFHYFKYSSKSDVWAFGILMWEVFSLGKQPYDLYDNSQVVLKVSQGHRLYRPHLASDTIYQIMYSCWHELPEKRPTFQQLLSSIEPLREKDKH
The note with it: for remaining binding at 10 µM: read-out: Percent control.

Another assay deals with T7, ERBB4 (Homo sapiens, UniProt Q15303).
T7 construct: purchased DiscoveRx KINOMEscan
The note with it: for remaining binding at 10 µM: read-out: Percent control.

Another assay deals with T8, BLK (Homo sapiens, UniProt P51451).
T8 construct: purchased DiscoveRx KINOMEscan
The note with it: for remaining binding at 10 µM: read-out: Percent control; for Percent control: BLK, 10 μM.

In a further assay the target is T9, EPHA2 (Homo sapiens, UniProt P29317).
T9 construct: purchased DiscoveRx KINOMEscan
The note with it: for remaining binding at 10 µM: read-out: Percent control.

For another assay, the target named is T10, TRKB (Homo sapiens, UniProt Q16620).
T10 construct: purchased DiscoveRx (KINOMEscan service)
The note with it: for remaining binding at 10 µM: read-out: Percent control.

The target in a further assay is T11, VEGFR2 (Homo sapiens, UniProt P35968).
T11 construct: purchased DiscoveRx Corporation (KINOMEscan service)
The note with it: for remaining binding at 10 µM: read-out: Percent control; for Percent control: 10 μM.

For the next assay, the target named is T12, IGF1R (Homo sapiens, UniProt P08069).
T12 construct: purchased DiscoveRx KINOMEscan
The note with it: for remaining binding at 10 µM: read-out: Percent control.

Setting [2] is: JAK3(JH1domain-catalytic), 10 μM.

T8 sequence (P51451 whole entry): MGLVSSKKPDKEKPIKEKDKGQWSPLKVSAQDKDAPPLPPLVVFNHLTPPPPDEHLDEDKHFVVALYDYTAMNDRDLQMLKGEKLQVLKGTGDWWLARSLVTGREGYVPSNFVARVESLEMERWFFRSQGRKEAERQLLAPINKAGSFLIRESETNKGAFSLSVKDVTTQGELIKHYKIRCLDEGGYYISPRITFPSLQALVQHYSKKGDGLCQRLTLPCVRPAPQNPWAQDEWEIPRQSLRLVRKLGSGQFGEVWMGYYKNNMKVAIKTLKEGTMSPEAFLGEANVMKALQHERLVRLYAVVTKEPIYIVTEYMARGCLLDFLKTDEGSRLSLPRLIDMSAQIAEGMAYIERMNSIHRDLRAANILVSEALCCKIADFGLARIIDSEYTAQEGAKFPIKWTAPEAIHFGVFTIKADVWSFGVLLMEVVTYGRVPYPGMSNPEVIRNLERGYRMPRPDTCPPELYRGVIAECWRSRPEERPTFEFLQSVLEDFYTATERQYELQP
T9 sequence (P29317 24-976): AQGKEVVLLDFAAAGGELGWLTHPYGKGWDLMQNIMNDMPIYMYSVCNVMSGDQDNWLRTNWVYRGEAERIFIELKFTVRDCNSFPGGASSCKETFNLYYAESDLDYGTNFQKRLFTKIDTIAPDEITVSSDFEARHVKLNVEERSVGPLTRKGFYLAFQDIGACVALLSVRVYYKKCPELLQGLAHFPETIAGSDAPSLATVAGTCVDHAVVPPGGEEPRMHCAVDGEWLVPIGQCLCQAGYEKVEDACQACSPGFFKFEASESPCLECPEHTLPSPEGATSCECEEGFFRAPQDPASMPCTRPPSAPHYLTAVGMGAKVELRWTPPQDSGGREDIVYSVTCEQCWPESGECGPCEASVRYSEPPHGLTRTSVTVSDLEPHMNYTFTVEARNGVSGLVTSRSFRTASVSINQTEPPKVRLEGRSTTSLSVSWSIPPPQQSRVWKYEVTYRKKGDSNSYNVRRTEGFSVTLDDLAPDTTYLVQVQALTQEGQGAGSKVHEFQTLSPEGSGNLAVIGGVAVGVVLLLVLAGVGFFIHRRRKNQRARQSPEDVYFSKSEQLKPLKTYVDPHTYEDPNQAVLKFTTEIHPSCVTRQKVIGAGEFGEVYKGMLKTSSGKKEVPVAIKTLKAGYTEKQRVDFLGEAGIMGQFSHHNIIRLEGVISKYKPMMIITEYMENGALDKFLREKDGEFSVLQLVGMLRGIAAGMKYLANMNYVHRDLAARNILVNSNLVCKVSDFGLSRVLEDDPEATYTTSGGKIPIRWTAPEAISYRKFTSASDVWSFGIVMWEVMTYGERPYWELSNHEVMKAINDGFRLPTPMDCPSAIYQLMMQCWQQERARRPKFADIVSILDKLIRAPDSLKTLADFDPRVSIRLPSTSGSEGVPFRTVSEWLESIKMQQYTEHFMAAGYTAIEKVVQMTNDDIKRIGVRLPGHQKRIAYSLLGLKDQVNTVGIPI
T2 sequence (Q9H3Y6 whole entry): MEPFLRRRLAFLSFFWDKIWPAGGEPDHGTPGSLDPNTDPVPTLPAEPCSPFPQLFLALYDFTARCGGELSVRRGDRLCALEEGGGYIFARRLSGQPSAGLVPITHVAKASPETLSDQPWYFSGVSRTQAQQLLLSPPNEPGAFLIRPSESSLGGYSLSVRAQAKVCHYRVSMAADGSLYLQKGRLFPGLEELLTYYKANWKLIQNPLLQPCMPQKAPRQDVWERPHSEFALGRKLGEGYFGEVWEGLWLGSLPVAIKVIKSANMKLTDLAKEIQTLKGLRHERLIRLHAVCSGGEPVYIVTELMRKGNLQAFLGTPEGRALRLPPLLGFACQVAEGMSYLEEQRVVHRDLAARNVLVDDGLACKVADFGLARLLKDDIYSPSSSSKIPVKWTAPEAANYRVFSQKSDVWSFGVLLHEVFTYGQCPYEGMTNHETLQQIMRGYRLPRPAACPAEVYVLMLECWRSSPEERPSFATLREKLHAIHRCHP
T10 sequence (Q16620 32-822): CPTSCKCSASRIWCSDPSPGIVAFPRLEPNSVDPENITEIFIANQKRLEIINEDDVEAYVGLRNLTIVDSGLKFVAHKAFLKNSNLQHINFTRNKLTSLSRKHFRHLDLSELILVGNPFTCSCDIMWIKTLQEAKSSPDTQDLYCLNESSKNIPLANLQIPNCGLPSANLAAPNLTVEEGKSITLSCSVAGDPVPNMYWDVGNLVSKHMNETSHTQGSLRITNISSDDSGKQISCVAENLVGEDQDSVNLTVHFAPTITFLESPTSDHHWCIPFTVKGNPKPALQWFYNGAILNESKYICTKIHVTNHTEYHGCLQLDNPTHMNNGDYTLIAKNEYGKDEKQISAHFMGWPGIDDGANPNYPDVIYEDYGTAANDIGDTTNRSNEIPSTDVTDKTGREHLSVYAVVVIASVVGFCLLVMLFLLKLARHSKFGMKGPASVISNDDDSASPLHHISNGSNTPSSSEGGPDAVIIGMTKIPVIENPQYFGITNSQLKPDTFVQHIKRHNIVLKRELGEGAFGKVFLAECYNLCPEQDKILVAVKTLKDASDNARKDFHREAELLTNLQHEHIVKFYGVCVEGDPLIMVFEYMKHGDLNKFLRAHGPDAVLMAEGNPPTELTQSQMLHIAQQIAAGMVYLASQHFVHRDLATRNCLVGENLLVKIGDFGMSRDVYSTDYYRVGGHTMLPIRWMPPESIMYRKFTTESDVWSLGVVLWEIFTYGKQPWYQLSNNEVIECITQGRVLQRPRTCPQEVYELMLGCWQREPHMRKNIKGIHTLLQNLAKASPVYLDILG
T7 sequence (Q15303 26-1308): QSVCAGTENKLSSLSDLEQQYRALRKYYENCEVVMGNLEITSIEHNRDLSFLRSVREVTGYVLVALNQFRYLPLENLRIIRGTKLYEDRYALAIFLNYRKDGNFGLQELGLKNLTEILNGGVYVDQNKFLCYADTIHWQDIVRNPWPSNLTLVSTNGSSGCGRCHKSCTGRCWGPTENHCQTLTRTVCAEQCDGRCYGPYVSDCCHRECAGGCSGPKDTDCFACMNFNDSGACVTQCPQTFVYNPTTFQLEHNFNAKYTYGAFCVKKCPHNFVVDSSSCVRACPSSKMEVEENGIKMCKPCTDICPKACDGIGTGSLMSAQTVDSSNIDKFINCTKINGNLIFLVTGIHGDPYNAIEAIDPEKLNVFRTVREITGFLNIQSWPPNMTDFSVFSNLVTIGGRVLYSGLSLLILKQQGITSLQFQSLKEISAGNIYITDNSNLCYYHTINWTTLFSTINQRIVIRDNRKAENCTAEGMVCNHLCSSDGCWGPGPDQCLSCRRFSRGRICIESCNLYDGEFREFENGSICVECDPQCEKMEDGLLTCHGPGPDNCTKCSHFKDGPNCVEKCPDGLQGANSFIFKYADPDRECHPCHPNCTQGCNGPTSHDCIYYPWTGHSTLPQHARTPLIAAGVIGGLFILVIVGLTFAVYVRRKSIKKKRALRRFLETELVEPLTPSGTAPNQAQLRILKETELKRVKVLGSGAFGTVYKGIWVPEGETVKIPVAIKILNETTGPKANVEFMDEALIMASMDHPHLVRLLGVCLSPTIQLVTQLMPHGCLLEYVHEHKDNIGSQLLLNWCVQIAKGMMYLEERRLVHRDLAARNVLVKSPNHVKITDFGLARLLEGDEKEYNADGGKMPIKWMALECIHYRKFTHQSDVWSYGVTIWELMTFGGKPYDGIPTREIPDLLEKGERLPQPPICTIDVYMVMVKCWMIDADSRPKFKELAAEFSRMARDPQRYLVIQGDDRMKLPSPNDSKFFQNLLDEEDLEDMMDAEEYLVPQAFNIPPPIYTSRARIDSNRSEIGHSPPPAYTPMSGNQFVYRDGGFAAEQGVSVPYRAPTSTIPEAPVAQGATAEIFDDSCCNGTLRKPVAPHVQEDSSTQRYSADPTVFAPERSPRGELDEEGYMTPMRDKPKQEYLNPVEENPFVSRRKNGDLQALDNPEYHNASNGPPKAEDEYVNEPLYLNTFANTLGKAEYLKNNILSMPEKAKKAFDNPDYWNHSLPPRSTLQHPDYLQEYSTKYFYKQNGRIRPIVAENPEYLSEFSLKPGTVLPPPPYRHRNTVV
T4 sequence (Q05397 whole entry): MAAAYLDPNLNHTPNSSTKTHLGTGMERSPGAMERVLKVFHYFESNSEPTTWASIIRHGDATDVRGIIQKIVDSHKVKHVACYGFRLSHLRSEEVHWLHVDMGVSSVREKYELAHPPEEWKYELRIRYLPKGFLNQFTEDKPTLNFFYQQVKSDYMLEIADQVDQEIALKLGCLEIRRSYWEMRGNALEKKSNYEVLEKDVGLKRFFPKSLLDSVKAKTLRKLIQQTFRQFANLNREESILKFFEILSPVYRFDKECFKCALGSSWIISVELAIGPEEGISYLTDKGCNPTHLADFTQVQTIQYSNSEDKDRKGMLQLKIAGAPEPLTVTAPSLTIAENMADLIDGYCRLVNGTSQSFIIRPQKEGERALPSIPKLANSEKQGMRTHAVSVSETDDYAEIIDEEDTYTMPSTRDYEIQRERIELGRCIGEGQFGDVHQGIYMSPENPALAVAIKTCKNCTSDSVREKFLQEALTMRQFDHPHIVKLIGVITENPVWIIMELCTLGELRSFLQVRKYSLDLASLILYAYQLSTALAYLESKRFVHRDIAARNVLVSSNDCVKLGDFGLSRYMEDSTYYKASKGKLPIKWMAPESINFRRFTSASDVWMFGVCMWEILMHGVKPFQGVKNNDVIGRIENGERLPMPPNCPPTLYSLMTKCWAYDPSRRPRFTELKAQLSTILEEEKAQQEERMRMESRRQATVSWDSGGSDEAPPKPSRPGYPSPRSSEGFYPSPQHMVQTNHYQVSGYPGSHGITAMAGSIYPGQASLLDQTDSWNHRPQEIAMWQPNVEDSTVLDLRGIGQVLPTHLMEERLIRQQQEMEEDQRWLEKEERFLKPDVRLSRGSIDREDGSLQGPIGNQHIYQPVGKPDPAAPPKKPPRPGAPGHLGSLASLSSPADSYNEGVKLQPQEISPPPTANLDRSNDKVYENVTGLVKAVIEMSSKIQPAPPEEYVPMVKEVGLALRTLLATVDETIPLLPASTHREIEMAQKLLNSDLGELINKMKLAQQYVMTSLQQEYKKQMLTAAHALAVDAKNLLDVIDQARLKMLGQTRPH

Take `COc1cc2c(Nc3ccc(Br)cc3F)ncnc2cc1OCC1CCN(C)CC1` [Vandetanib, reference compound]: the remaining binding at 10 µM on MERTK (MERTK, 10 μM) came out at 12.3%; on SRMS (SRMS, 10 μM), 16%; in assay [1] (setting [2]) it was 100%; at FAK (FAK, 10 μM) it was 100%; on TXK it was 27%; on BMX (BMX, 10 μM) it was 100%. Moreover, the remaining binding at 10 µM worked out at 4.5% on ERBB4 (ERBB4, 10 μM); 0.7% at BLK; 9.9% on EPHA2 (EPHA2, 10 μM); 100% at TRKB (TRKB, 10 μM); 7.6% on VEGFR2; 100% on IGF1R (IGF1R, 10 μM).
As to `Cc1ccc(NC(=O)c2ccc(CN3CCN(C)CC3)cc2)cc1Nc1nccc(-c2cccnc2)[n+]1[Pt-2]1([Cl])[NH2+]C2CCCCC2[NH2+]1` (stereo not drawn) [1b, oxaliplatin-imatinib], the Percent control at MERTK (MERTK, 10 μM) is 100%; on SRMS (SRMS, 10 μM), 98%; in assay [1] (setting [2]), 55%; at FAK (FAK, 10 μM), 90%; on TXK, 87%; on BMX (BMX, 10 μM) it was 98%. For the same molecule, the Percent control at ERBB4 (ERBB4, 10 μM) turned out to be 93%; at BLK, 12%; at EPHA2 (EPHA2, 10 μM), 99%; at TRKB (TRKB, 10 μM), 100%; on VEGFR2 it was 100%; on IGF1R (IGF1R, 10 μM), 100%.
For the molecule `C#Cc1cccc(Nc2ncnc3cc(OCCOC)c(OCCOC)cc23)c1` [Erlotinib], the remaining binding at 10 µM on MERTK came out at 8.9%; at SRMS it was 100%; in [1], 6.5%; on FAK it was 100%; on TXK, 27.5%; on BMX, 100%. Further, the remaining binding at 10 µM on ERBB4 is 2.2%; at BLK it was 1.9%; on EPHA2, 100%; at TRKB it was 100%; at VEGFR2, 36.3%; on IGF1R it was 100%.
Turning to `COc1cc2c(Nc3ccc(Br)cc3F)[n+]([Pt-2]3([Cl])[NH2+]C4CCCCC4[NH2+]3)cnc2cc1OCC1CCN(C)CC1` (stereo not drawn) [3b, oxaliplatin-vandetanib], the Percent control on MERTK (MERTK, 10 μM) is listed as 17%; on SRMS (SRMS, 10 μM) it was 95%; in assay [1] (setting [2]), 100%; on FAK (FAK, 10 μM) it was 86%; on TXK it was 56%; on BMX (BMX, 10 μM) it was 92%. The Percent control is listed as 56% on ERBB4 (ERBB4, 10 μM); 1.4% on BLK; 43% at EPHA2 (EPHA2, 10 μM); 72% at TRKB (TRKB, 10 μM); 3.2% at VEGFR2; 100% at IGF1R (IGF1R, 10 μM).
Regarding `C#Cc1cccc(Nc2c3cc(OCCOC)c(OCCOC)cc3nc[n+]2[Pt@SP2-2]([NH3+])([NH3+])[Cl])c1` [2a, cisplatin-erlotinib], the Percent control is on record as 100% on MERTK (MERTK, 10 μM); 94% at SRMS (SRMS, 10 μM); 28% in assay [1] (setting [2]); 94% at FAK (FAK, 10 μM); 76% on TXK; 100% on BMX (BMX, 10 μM). In addition, the Percent control is listed as 47% on ERBB4 (ERBB4, 10 μM); 41% on BLK; 93% on EPHA2 (EPHA2, 10 μM); 95% on TRKB (TRKB, 10 μM); 98% at VEGFR2; 86% at IGF1R (IGF1R, 10 μM).
`Cc1ccc(NC(=O)c2ccc(CN3CCN(C)CC3)cc2)cc1Nc1nccc(-c2cccnc2)n1` [Imatinib, reference compound]: the Percent control on MERTK (MERTK, 10 μM) worked out at 100%; on SRMS (SRMS, 10 μM) it was 100%; in assay [1] (setting [2]), 100%; on FAK (FAK, 10 μM), 100%; at TXK it was 100%; at BMX (BMX, 10 μM), 100%. Also, the Percent control is reported as 100% on ERBB4 (ERBB4, 10 μM); 4.9% on BLK; 100% at EPHA2 (EPHA2, 10 μM); 100% on TRKB (TRKB, 10 μM); 100% on VEGFR2; 100% on IGF1R (IGF1R, 10 μM).
